In patent publication US20250230193A1, “CYCLIC COMPOUND HAVING SELECTIVE KRAS INHIBITORY EFFECT ON HRAS AND NRAS” (CHUGAI SEIYAKU KABUSHIKI KAISHA, priority 2022, published 2025):

What was measured:
[1] = biological target: GDP-bound NRAS wild-type protein (Homo sapiens, UniProt P01111); test: Binding to NRAS by surface plasmon resonance (SPR), Single Cycle Kinetics; settings: KD ratio NRAS/KRAS, class symbols
[2] = biological target: GDP-bound HRAS wild-type protein (Homo sapiens, UniProt P01112); test: Binding to HRAS by surface plasmon resonance (SPR), Single Cycle Kinetics; settings: KD ratio HRAS/KRAS, class symbols
Sequence of GDP-bound HRAS wild-type protein (P01112 whole entry): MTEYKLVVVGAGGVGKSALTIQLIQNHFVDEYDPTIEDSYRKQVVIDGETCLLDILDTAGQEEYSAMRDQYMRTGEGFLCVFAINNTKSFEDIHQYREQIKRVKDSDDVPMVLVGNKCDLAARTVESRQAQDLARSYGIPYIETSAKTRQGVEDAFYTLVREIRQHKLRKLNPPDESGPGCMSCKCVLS

Sequence of GDP-bound NRAS wild-type protein (P01111 whole entry): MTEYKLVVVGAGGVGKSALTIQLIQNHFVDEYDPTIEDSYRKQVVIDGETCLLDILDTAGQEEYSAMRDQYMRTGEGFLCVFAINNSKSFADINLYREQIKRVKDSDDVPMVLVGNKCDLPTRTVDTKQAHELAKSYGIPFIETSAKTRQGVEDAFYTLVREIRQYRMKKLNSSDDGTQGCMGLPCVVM

SMILES	NRAS/KRAS (ratio of KD value with respect to GDP-bound NRAS wild-type protein to KD value with respect to KRAS) [1]	HRAS/KRAS (ratio of KD value with respect to GDP-bound HRAS wild-type protein to KD value with respect to KRAS) [2]
CC[C@H](C)[C@@H]1NC(=O)[C@@H]2CCC/C=C/c3ccc(cc3)C[C@@H](C(=O)N(C)CC(=O)N[C@@H](CCc3ccc(Cl)c(Cl)c3)C(=O)N3C[C@H](OC(C)C)C[C@H]3C(=O)NC3(CC(C)(C)C3)C(=O)N(C)[C@@H](C3CCCC3)C(=O)N(C)[C@H](C(=O)N3CCCC3)CC(=O)N2C)N2CC/C=C\C[C@@H](C2=O)N(C)C(=O)CN(C)C1=O [PP2596]	A (a compound having 10 or more and less than 20 is denoted as A)	A (a compound having 10 or more and less than 20 is denoted as A)
CCO[C@@H]1C[C@H]2C(=O)NC3(CC(C)(C)C3)C(=O)N(C)[C@@H](C3CCCC3)C(=O)N(C)[C@H](C(=O)N3CCCCC3)CC(=O)N(C)[C@H]3CC/C=C/c4ccc(cc4)C[C@@H](C(=O)N(C)CC(=O)N[C@@H](CCc4ccc(Cl)c(Cl)c4)C(=O)N2C1)N1CC/C=C\C[C@@H](C1=O)N(C)C(=O)CN(C)C(=O)[C@H]([C@@H](C)CC)NC3=O [PP2597]	A (a compound having 10 or more and less than 20 is denoted as A)	A (a compound having 10 or more and less than 20 is denoted as A)
CCO[C@@H]1C[C@H]2C(=O)NC3(CC(C)(C)C3)C(=O)N(C)[C@@H](C3CCCC3)C(=O)N(C)[C@H](C(=O)N(C)CC)CC(=O)N(C)[C@H]3CC/C=C/c4ccc(cc4)C[C@@H](C(=O)N(C)CC(=O)N[C@@H](CCc4ccc(Cl)c(Cl)c4)C(=O)N2C1)N1CC/C=C\C[C@@H](C1=O)N(C)C(=O)CN(C1CC1)C(=O)[C@H]([C@@H](C)CC)NC3=O [PP2598]	A (a compound having 10 or more and less than 20 is denoted as A)	A (a compound having 10 or more and less than 20 is denoted as A)
CCC(CC)[C@H]1C(=O)N(C)[C@H](C(=O)N(C)C)CC(=O)N(C)[C@H]2CCC/C=C/c3ccc(cc3)C[C@@H](C(=O)N(C)CC(=O)N[C@@H](CCc3cc(F)c(C(F)(F)F)c(F)c3)C(=O)N3CCC[C@H]3C(=O)NC3(CC(C)(C)C3)C(=O)N1C)N1CC/C=C\C[C@@H](C1=O)N(C)C(=O)CN(C)C(=O)[C@H]([C@@H](C)CC)NC2=O [PP2600]	A (a compound having 10 or more and less than 20 is denoted as A)	A (a compound having 10 or more and less than 20 is denoted as A)
CC[C@H](C)[C@@H]1NC(=O)[C@@H]2CCC/C=C/c3ccc(cc3)C[C@@H](C(=O)N(C)CC(=O)N[C@@H](CCc3ccc(Cl)c(Cl)c3)C(=O)N3CCC[C@H]3C(=O)NC3(CC(C)(C)C3)C(=O)N(C)[C@@H](C3CCCC3)C(=O)N(C)[C@H](C(=O)N(C)CC)CC(=O)N2C)N2CC/C=C\C[C@@H](C2=O)N(C)C(=O)CN(C)C1=O [PP2601]	A (a compound having 10 or more and less than 20 is denoted as A)	A (a compound having 10 or more and less than 20 is denoted as A)
CC[C@H](C)[C@@H]1NC(=O)[C@@H]2CCC/C=C/c3ccc(cc3)C[C@@H](C(=O)N(C)CC(=O)N[C@@H](CCc3ccc(Cl)c(Cl)c3)C(=O)N3CCC[C@H]3C(=O)NC3(CC(C)(C)C3)C(=O)N(C)[C@@H](C3CCCC3)C(=O)N(C)[C@H](C(=O)N3CCCC3)CC(=O)N2C)N2CC/C=C\C[C@@H](C2=O)N(C)C(=O)CN(C)C1=O [PP2602]	A (a compound having 10 or more and less than 20 is denoted as A)	A (a compound having 10 or more and less than 20 is denoted as A)
CCC(CC)[C@H]1C(=O)N(C)[C@H](C(=O)N(C)C)CC(=O)N(C)[C@H]2CCC/C=C/c3ccc(cc3)C[C@@H](C(=O)N(C)CC(=O)N[C@@H](CCc3ccc(Cl)c(Cl)c3)C(=O)N3CCC[C@H]3C(=O)NC3(CC(C)(C)C3)C(=O)N1C)N1CC/C=C\C[C@@H](C1=O)N(C)C(=O)CN(C)C(=O)[C@H]([C@@H](C)CC)NC2=O [PP2603]	AA (a compound having 20 or more is denoted as AA)	A (a compound having 10 or more and less than 20 is denoted as A)
CCC(CC)[C@H]1C(=O)N(C)[C@H](C(=O)N2CCCC2)CC(=O)N(C)[C@H]2CCC/C=C/c3ccc(cc3)C[C@@H](C(=O)N(C)CC(=O)N[C@@H](CCc3ccc(Cl)c(Cl)c3)C(=O)N3CCC[C@H]3C(=O)NC3(CC(C)(C)C3)C(=O)N1C)N1CC/C=C\C[C@@H](C1=O)N(C)C(=O)CN(C)C(=O)[C@H]([C@@H](C)CC)NC2=O [PP2604]	AA (a compound having 20 or more is denoted as AA)	A (a compound having 10 or more and less than 20 is denoted as A)
CCO[C@@H]1C[C@H]2C(=O)NC3(CCC3)C(=O)N(C)[C@@H](C(CC)CC)C(=O)N(C)[C@H](C(=O)N(C)C)CC(=O)N(C)[C@H]3CCCC/C=C/c4ccc(cc4)C[C@@H](C(=O)N(C)CC(=O)N[C@@H](CCc4ccc(Cl)c(Cl)c4)C(=O)N2C1)N1CC/C=C\C[C@@H](C1=O)N(C)C(=O)CN(C1CC1)C(=O)[C@H]([C@@H](C)CC)NC3=O [PP2605]	AA (a compound having 20 or more is denoted as AA)	A (a compound having 10 or more and less than 20 is denoted as A)
CCO[C@@H]1C[C@H]2C(=O)NC3(CC(C)(C)C3)C(=O)N(C)[C@@H](C(CC)CC)C(=O)N(C)[C@H](C(=O)N3CCCCC3)CC(=O)N(C)[C@@H](COC)C(=O)N[C@@H]([C@@H](C)CC)C(=O)N(C)CC(=O)N(C)[C@H]3C/C=C\CCN(C3=O)[C@@H](Cc3ccc(C(F)(F)F)cc3)C(=O)N(C)CC(=O)N[C@@H](CCc3cc(F)c(C(F)(F)F)c(F)c3)C(=O)N2C1 [PP2606]	AA (a compound having 20 or more is denoted as AA)	AA (a compound having 20 or more is denoted as AA)
CCC(CC)[C@H]1C(=O)N(C)[C@H](C(=O)N2CCCCC2)CC(=O)N(C)[C@@H](COC)C(=O)N[C@@H]([C@@H](C)CC)C(=O)N(C)CC(=O)N(C)[C@H]2C/C=C\CCN(C2=O)[C@@H](Cc2ccc(C(F)(F)F)cc2)C(=O)N(C)CC(=O)N[C@@H](CCc2cc(F)c(C(F)(F)F)c(F)c2)C(=O)N2C[C@H](OC(C)C)C[C@H]2C(=O)NC2(CC(C)(C)C2)C(=O)N1C [PP2608]	AA (a compound having 20 or more is denoted as AA)	A (a compound having 10 or more and less than 20 is denoted as A)
CCO[C@@H]1C[C@H]2C(=O)NC3(CC(C)(C)C3)C(=O)N(C)[C@@H](C(CC)CC)C(=O)N(C)[C@H](C(=O)N3CCCCC3)CC(=O)N(C)[C@@H](COC)C(=O)N[C@@H]([C@@H](C)CC)C(=O)N(C)CC(=O)N(C)[C@H]3C/C=C\CCN(C3=O)[C@@H](Cc3ccc(C(F)(F)F)cc3)C(=O)N(C)CC(=O)N[C@@H](CCc3ccc(Cl)c(Cl)c3)C(=O)N2C1 [PP2610]	AA (a compound having 20 or more is denoted as AA)	A (a compound having 10 or more and less than 20 is denoted as A)
CCC(CC)[C@H]1C(=O)N(C)[C@H](C(=O)N2CCCCC2)CC(=O)N(C)[C@@H](COC)C(=O)N[C@@H]([C@@H](C)CC)C(=O)N(C)CC(=O)N(C)[C@H]2C/C=C\CCN(C2=O)[C@@H](Cc2ccc(C(F)(F)F)cc2)C(=O)N(C)CC(=O)N[C@@H](CCc2ccc(Cl)c(Cl)c2)C(=O)N2C[C@H](OC(C)C)C[C@H]2C(=O)NC2(CC(C)(C)C2)C(=O)N1C [PP2612]	AA (a compound having 20 or more is denoted as AA)	A (a compound having 10 or more and less than 20 is denoted as A)
CCC[C@H]1C(=O)N[C@@H]([C@@H](C)CC)C(=O)N(C2CC2)CC(=O)N(C)[C@H]2C/C=C\CCN(C2=O)[C@@H](Cc2ccc(C)cc2)C(=O)N(C)CC(=O)N[C@@H](CCc2cc(F)c(C(F)(F)F)c(F)c2)C(=O)N2C[C@H](OC3CCC3)C[C@H]2C(=O)NC2(CC(C)(C)C2)C(=O)N(C)[C@@H](C2CCCC2)C(=O)N(C)[C@H](C(=O)N(C)C)CC(=O)N1C [PP2614]	A (a compound having 10 or more and less than 20 is denoted as A)	A (a compound having 10 or more and less than 20 is denoted as A)
CCC(CC)[C@H]1C(=O)N(C)[C@H](C(=O)N(C)C)CC(=O)N(C)[C@@H](COC)C(=O)N[C@@H]([C@@H](C)CC)C(=O)N(C2CC2)CC(=O)N(C)[C@H]2C/C=C\CCN(C2=O)[C@@H](CC2CCC(F)(F)CC2)C(=O)N(C)CC(=O)N[C@@H](CCc2cc(F)c(C(F)(F)F)c(F)c2)C(=O)N2C[C@H](OC3CCC3)C[C@H]2C(=O)NC2(CC(C)(C)C2)C(=O)N1C [PP2615]	A (a compound having 10 or more and less than 20 is denoted as A)	A (a compound having 10 or more and less than 20 is denoted as A)
